From the supplement of paper PMC11061612 come the findings set out here.

The test system of assay [1] is ST486 (Burkitt's Lymphoma). The experiment in a line: combination Emax (second highest fraction inhibited in the dose matrix, 72 h); higher = more inhibition; extreme values may be limits of the assay. The procedure, abridged:
(§1)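 Cell lines in DMEM/F12 or RPMI with 10% FBS were plated in 1536-well plates, held 24 hours at 37°C, 5% CO2, then given two-drug dose matrices for 72 hours (DMSO typically 0.2%). Viability was read by CellTiter-Glo 2.0 luminescence and scaled as inhibition from 0 (vehicle wells) to 1 (blank wells). Combination Emax is the second-highest inhibition in the matrix; Bliss excess is observed combination effect minus expected EA + EB − EA·EB, EA and EB being single-agent effects.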

The test system of assay [2] is KMS-12-BM (Plasma Cell Myeloma). Kind of assay: Bliss excess, mean over the matrix (fraction); higher = more synergy. The method, boiled down:
as §1

Assay [3] deals with NCI-H661 (Non-Small Cell Lung Carcinoma). The description is as above. The method, boiled down: as §1
Assay [4] deals with SU-DHL-5 (B-Cell Non-Hodgkin's Lymphoma). The description is as above. The procedure, abridged:
as §1

The subject of assay [5] is MOLM-13 (Acute Myeloid Leukemia). Described as above. The method, boiled down: as §1
The next assay relates to NCI-H2731 (Mesothelioma). The assay is described as above. The procedure, abridged:
as §1

For assay [6], the system named is ESO51 (Esophageal Adenocarcinoma). Described as above. The method, boiled down: as §1
Assay [7] concerns 8505C (Thyroid Gland Carcinoma). The assay is described as above. The procedure, abridged:
as §1

The test system of assay [8] is NCI-H929 (Plasma Cell Myeloma). The assay is described as above. The method, boiled down: as §1
The subject of assay [9] is COR-L279 (Small Cell Lung Carcinoma). The description is as above. The method, boiled down: as §1
For assay [10], the system named is JHH-4 (Hepatocellular Carcinoma). The assay is described as above. The method, boiled down: as §1
The subject of a further assay is M059J (Glioblastoma). The description is as above. The procedure, abridged: as §1
For a further assay, the system named is G-361 (Melanoma). The assay is described as above. The procedure, abridged: as §1
The test system of assay [11] is T-T (Esophageal Squamous Cell Carcinoma). The assay is described as above. The method, boiled down: as §1
The next assay concerns SJSA-1 (Osteosarcoma). The description is as above. The procedure, abridged:
as §1

Assay [12] concerns KY821 (Acute Myeloid Leukemia). Described as above. The method, boiled down:
as §1

The test system of assay [13] is RPMI-8226 (Plasma Cell Myeloma). The assay is described as above. The method, boiled down: as §1
Assay [14] concerns KP-3 (Pancreatic Carcinoma). The description is as above. The procedure, abridged: as §1
Assay [15] concerns SNU-398 (Hepatocellular Carcinoma). The assay is described as above. The procedure, abridged:
as §1

Assay [16] concerns NCI-H520 (Squamous Cell Lung Carcinoma). The description is as above. The method, boiled down: as §1
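For Bliss excess, mean over the matrix in this document: after 72 h of two-drug dosing.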

Consider `Cc1cc2ncnn2cc1Nc1ncc2c(n1)n(C1CCOCC1)c(=O)n2C` [AZD7648] + CN(C)CCCOc1ccc(-c2ccc3ncc4c(c3c2)n(C2CCOCC2)c(=O)n4C)cn1 [AZD0156] (first compound max 10 µM, 7x7, partner max 1 µM), for which the “combination Emax” value in assay [1] turned out to be 0.274. The Bliss excess in assay [2] is 0.0032; in [3] it was 0.0202; in assay [4], 0.0272; in assay [5], 0.0085; with NCI-H2731 (Mesothelioma), -0.0326; in assay [6], -0.0151. Further, the Bliss excess in [7] is -0.0003; in [8] it was -0.0727; in assay [9], -0.0044; in [10], 0.0025; with M059J (Glioblastoma), 0.0149; in the assay with G-361 (Melanoma), 0.0032. Besides, the Bliss excess is 0.0269 in [11]; -0.0385 with SJSA-1 (Osteosarcoma); 0.0429 in assay [12]; 0.0171 in assay [13]; 0.0074 in assay [14]; -0.0273 in assay [15]. Besides, in assay [16], the Bliss excess came out at 0.0833.
As for `Cc1cc2ncnn2cc1Nc1ncc2c(n1)n(C1CCOCC1)c(=O)n2C` [AZD7648] + C[C@@H]1COCCN1C2=NC(=NC(=C2)C3(CC3)[S@](=N)(=O)C)C4=C5C=CNC5=NC=C4 [AZD6738] (first compound max 10 µM, 7x7, partner max 10 µM), the “combination Emax” value in [1] worked out at 0.893. In addition, the Bliss excess in assay [2] worked out at 0.0125; in assay [3], 0.0522; in assay [4] it was 0.0007; in assay [5] it was 0.0003; in the assay on NCI-H2731 (Mesothelioma), 0.055; in assay [6], 0.0153. The Bliss excess in [7] was -0.0223; in assay [8] it was -0.0268; in assay [9] it was 0.0253; in [10], 0.013; in the assay on M059J (Glioblastoma), 0.0282; in the assay with G-361 (Melanoma) it was 0.0105. Besides, the Bliss excess in [11] was 0.0146; in the assay with SJSA-1 (Osteosarcoma), 0.0225; in [12] it was 0.0008; in assay [13] it was -0.0744; in assay [14] it was 0.0351; in assay [15] it was -0.0097. Moreover, in assay [16], the Bliss excess was -0.0108.
For the compound `Cc1cc2ncnn2cc1Nc1ncc2c(n1)n(C1CCOCC1)c(=O)n2C` [AZD7648] + O=C(c1cc(Cc2n[nH]c(=O)c3ccccc23)ccc1F)N1CCN(C(=O)C2CC2)CC1 [Olaparib] (first compound max 10 µM, 7x7, partner max 10 µM), in assay [1], the “combination Emax” value was 0.424. For the same compound, the Bliss excess in assay [2] is 0.027; in assay [3], -0.0373; in assay [4], 0.0091; in assay [5] it was -0.134; in the assay on NCI-H2731 (Mesothelioma), -0.069; in assay [6] it was -0.0056. Besides, the Bliss excess was -0.0202 in assay [7]; -0.0192 in [8]; -0.0256 in assay [9]; -0.0213 in assay [10]; -0.097 in the assay on M059J (Glioblastoma); -0.043 in the assay with G-361 (Melanoma). Also, the Bliss excess was -0.0642 in [11]; -0.036 with SJSA-1 (Osteosarcoma); -0.0003 in assay [12]; -0.038 in assay [13]; -0.0409 in assay [14]; -0.0381 in [15]. The Bliss excess in assay [16] is -0.0742.
As to `NC1(C(=O)N[C@@H](CCO)c2ccc(Cl)cc2)CCN(c2ncnc3[nH]ccc23)CC1` [Capivasertib] + CC(=O)c1c(C)c2cnc(Nc3ccc(N4CCNCC4)cn3)nc2n(C2CCCC2)c1=O [Palbociclib] (first compound max 10 µM, 7x7, partner max 10 µM), the “combination Emax” value in [1] came out at 0.549. For the same compound, the Bliss excess in assay [2] is 0.0977; in [3], 0.0204; in assay [4], 0.0287; in [5], -0.0098; in the assay on NCI-H2731 (Mesothelioma), -0.0008; in assay [6], -0.0475. Further, the Bliss excess in assay [7] was -0.0475; in assay [8], -0.0066; in assay [9] it was -0.0443; in assay [10], -0.0242; in the assay with M059J (Glioblastoma), -0.0489; in the assay with G-361 (Melanoma), -0.0381. Further, the Bliss excess in assay [11] is -0.0221; in the assay with SJSA-1 (Osteosarcoma), -0.0445; in assay [12], -0.0078; in [13] it was 0.01; in [14] it was -0.0372; in assay [15], -0.057. Besides, the Bliss excess in [16] turned out to be 0.0018.
As to `NC1(C(=O)N[C@@H](CCO)c2ccc(Cl)cc2)CCN(c2ncnc3[nH]ccc23)CC1` [Capivasertib] + CC(C)n1c(=O)n(C)c2cnc3cc(F)c(-c4ccc(OCCCN5CCCCC5)nc4)cc3c21 [AZD1390] (first compound max 10 µM, 7x7, partner max 0.3 µM), the “combination Emax” value in assay [1] was 0.215. The Bliss excess is -0.0274 in [2]; -0.0692 in assay [3]; -0.0114 in [4]; -0.067 in assay [5]; -0.0169 in the assay with NCI-H2731 (Mesothelioma); -0.0416 in [6]. Also, the Bliss excess in assay [7] was -0.0376; in assay [8], -0.0187; in [9], -0.0055; in assay [10], -0.0504; with M059J (Glioblastoma), 0.0135; in the assay on G-361 (Melanoma), -0.0344. The Bliss excess in assay [11] is 0.0071; with SJSA-1 (Osteosarcoma), -0.0843; in [12], -0.021; in assay [13], -0.0096; in assay [14], -0.0596; in assay [15], -0.0579. For the same compound, in assay [16], the Bliss excess was -0.0559.
With `NC1(C(=O)N[C@@H](CCO)c2ccc(Cl)cc2)CCN(c2ncnc3[nH]ccc23)CC1` [Capivasertib] + CCN(CCO)CCCOc1ccc2c(Nc3cc(CC(=O)Nc4cccc(F)c4)[nH]n3)ncnc2c1 [AZD2811] (first compound max 10 µM, 7x7, partner max 1 µM), the “combination Emax” value in assay [1] was 0.834. The Bliss excess is 0.0502 in assay [2]; -0.0058 in assay [3]; -0.0225 in assay [4]; -0.0086 in [5]; 0.0438 in the assay with NCI-H2731 (Mesothelioma); -0.0363 in assay [6]. The Bliss excess in [7] was 0.0134; in assay [8] it was 0.025; in assay [9], -0.054; in assay [10], -0.0088; in the assay on M059J (Glioblastoma), -0.0328; in the assay on G-361 (Melanoma), 0.0426. Besides, the Bliss excess in assay [11] is 0.013; in the assay with SJSA-1 (Osteosarcoma) it was -0.0297; in assay [12], 0.052; in assay [13], -0.0101; in assay [14] it was -0.03; in assay [15], 0.0216. Further, the Bliss excess in assay [16] is -0.004.
Regarding `NC1(C(=O)N[C@@H](CCO)c2ccc(Cl)cc2)CCN(c2ncnc3[nH]ccc23)CC1` [Capivasertib] + COc1nnc2ccc(N3CCC(c4ccc(OCCN5CCN(C)C(=O)[C@H]5C)cc4)CC3)nn12 [AZD5153] (first compound max 10 µM, 7x7, partner max 1 µM), the “combination Emax” value in assay [1] was determined as 0.91. The Bliss excess was 0.0409 in assay [2]; 0.0687 in assay [3]; -0.0179 in assay [4]; 0.0145 in [5]; -0.0012 in the assay on NCI-H2731 (Mesothelioma); 0.0603 in [6]. The Bliss excess in [7] was 0.0008; in [8], -0.008; in assay [9], 0.0735; in assay [10] it was 0.0028; with M059J (Glioblastoma), -0.0266; in the assay with G-361 (Melanoma) it was 0.0218. Besides, the Bliss excess was -0.0365 in [11]; -0.0184 in the assay with SJSA-1 (Osteosarcoma); -0.0351 in [12]; 0.0244 in [13]; 0.0226 in [14]; 0.0733 in assay [15]. In addition, the Bliss excess in [16] worked out at 0.0497.
